This test in a line: Antiproliferative activity against mouse ASZ cells assessed as reduction in cell viability after 72 hrs by MTS/PMS assay. It is filed as functional.
By GI50 is commonly meant the concentration giving 50% growth inhibition. On to `CN(C)c1cccc(-c2ccc(C3C/C=C/CCC(=O)OCCCOC3=O)cc2)c1` (stereo not drawn), for which the GI50 was at least 75 µM.
Regarding `O=C1CC/C=C/CC(c2ccc(-c3cccc(O)c3)cc2)C(=O)OCCCO1` (stereo not drawn), the concentration for 50% growth inhibition (GI50) was 12.1 µM.
`O=C1CC/C=C/CC(c2ccc(-c3ccncc3)cc2)C(=O)OCCCO1` (stereo not drawn): the concentration for 50% growth inhibition (GI50) was at least 75 µM.
Take `O=C1CC/C=C/CC(c2ccc(-c3cnn(Cc4ccccc4)c3)cc2)C(=O)OCCCO1` (stereo not drawn): the GI50 is at least 100 µM.
Regarding `O=C1CC/C=C/CC(c2ccc(-c3ccccc3)cc2)C(=O)OCCCO1` (stereo not drawn), the GI50 is at least 100 µM.
As to `COc1cc(-c2ccc(C3C/C=C/CCC(=O)OCCCOC3=O)cc2)c(OC)nn1` (stereo not drawn), the GI50 is 19.7 µM.
To `O=C1CC/C=C/CC(c2ccc(-c3cccnc3)cc2)C(=O)OCCCO1` (stereo not drawn) belongs 40.9 µM; to `Cc1noc(C)c1-c1ccc(C2C/C=C/CCC(=O)OCCCOC2=O)cc1` (stereo not drawn), at least 75 µM.

Values taken from ChEMBL document CHEMBL4665873, “Exploring the physicochemical and antiproliferative properties of biaryl-linked [13]-macrodilactones” (2020).
